{"source": "patent US12077551B2", "about": "“Zinc complex, preparation thereof and use thereof for trerapy of human and animal diseases” (OBSCHESTVO S OGRANICHENNOI OTVETSTVENNOSTIYU “Z …, priority 2018, dated 2024)", "key": {"[1]": {"system": "mouse atopic dermatitis model", "experiment": "Mouse atopic dermatitis model (DNCB), histological analysis of the affected ear", "format": "in vivo, male mice of the balb/c strain", "method": "Experimental technique. The study of Compound 1 activity in the model of atopic dermatitis was carried out using the standard technique [Evidence-based Complementary and Alternative Medicine. 2012. Article ID 545497, 9 pages). For the experimental group, we selected animals of average appearance without signs of deviations, with the weight of the animal being no more than ±20% from the average value within the sex. On days 0 and 12 of the experiment, male mice of the balb/c strain were treated with 100 μl of a 2% solution of 1-chloro-2,4-dinitrobenzene (DNCB) in ethanol applied to the previously shaved areas on the back to sensitize the body. On the 17th day, 20 μl of 2% alcohol solution of DNCB was applied to the “test” right ear of the animals twice with an interval of 1 hour. Compound 1 cream with an active substance content of 0.01 wt % was administered topically, to the “test” right ear, twice: 1 and 13 hours after the last application of DNCB to the ear. The following were used as a comparison/reference/control medications: Methylprednisolone aceponate ([…] ointment for external use), pyrithione zinc (0.2% cream for external use), pimecrolimus (1% cream for external use) and cream for external use containing gamma-L-glutamylhistamine 0.01%. On the 18th day, the animals were euthanized and the histological analysis of the affected ear was performed. Histological sections with a thickness of 5 μm were stained with hematoxylin-eosin. […] The data obtained were verified using the Grubbs test, also known as the maximum normalized residual test a test used to detect outliers in a data set. The values identified as “outliers” in this test were not used for further analysis. Descriptive statistics were used for all data: the mean (M) and standard error of the mean (m) were calculated. The normal distribution of the values obtained in the experiment was verified using the Kolmogorov-Smirnov test. In the case of a normal distribution, Student's t-test was used to assess intergroup differences. […] Differences were determined at a 5% confidence level."}, "[2]": {"molecular_target": "recombinant intracellular human glutaminyl cyclase (Homo sapiens, UniProt Q9NXS2)", "sequence (Q9NXS2 whole entry)": "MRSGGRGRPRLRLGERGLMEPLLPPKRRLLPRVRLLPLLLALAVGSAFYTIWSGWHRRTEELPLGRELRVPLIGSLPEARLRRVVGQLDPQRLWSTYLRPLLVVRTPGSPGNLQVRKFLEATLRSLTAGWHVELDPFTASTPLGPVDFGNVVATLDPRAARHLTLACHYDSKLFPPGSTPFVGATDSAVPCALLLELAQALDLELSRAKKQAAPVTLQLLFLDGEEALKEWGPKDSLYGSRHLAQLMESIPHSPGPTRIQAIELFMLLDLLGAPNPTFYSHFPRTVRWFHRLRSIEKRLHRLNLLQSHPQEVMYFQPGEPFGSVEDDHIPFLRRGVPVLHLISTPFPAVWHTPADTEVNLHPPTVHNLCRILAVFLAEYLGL", "experiment": "Enzymatic activity of human glutaminyl cyclase in vitro (fluorescent substrate Gln-bNA)", "format": "biochemical", "conditions": "25° C., 50 μM Gln-bNA, pH 8.0, enzyme incubated with compound for 5 minutes; read-out: IC50, inhibition of glutaminyl cyclase activity", "method": "In the studies of the effect of Compound 1 (which is the subject of the present invention) on the enzymatic activity of glutaminyl cyclase in vitro, the direct inhibitory effect of Compound 1 on recombinant intracellular human glutaminyl cyclase was discovered.\nThe activity of glutaminyl cyclase at various Compound 1 concentrations was studied at 25° C. using the fluorescent substrate L-glutaminyl 2-naphthylamide (Gln-bNA) [Anal Biochem. 2002 Apr. 1; 303 (1): 49-56]. The reaction mixture with a volume of 100 μl contained 50 μM of a fluorogenic substrate; ˜0.2 units of human pyroglutaminyl aminopeptidase (1 unit is defined as the amount that hydrolyzes 1 micromole of pGlu-bNA per minute), and an aliquot of recombinant intracellular human glutaminyl cyclase (gQC) in […] trisaminomethane HCl and 5% glycerol, pH 8.0. The reaction was initiated by adding an aliquot of glutaminyl cyclase incubated with Compound 1 for 5 minutes to the reaction mixture.\nFurther progression of the reaction was monitored spectrophotometrically (excitation and emission wavelengths were 320 and 410 nm). Enzymatic activity was determined by the amount of released 2-naphthylamide (bNA), calculated based on the calibration curve. IC50 values were calculated using non-linear regression of the “inhibitor concentration”-“enzyme activity” curve."}, "[3]": {"experiment": "Solubility and dissociation of the product (NMR solvents, D2O spectrum)", "format": "physicochemical", "from_the_text": "The prepared resulting product is insoluble in solvents which are used to record NMR spectra.\nIt mainly contains the residual signal of the non-deuterated solvent, and low-intensity signals corresponding to the original gamma-L-glutamylhistamine."}}, "data": [{"substance": "zinc complex of gamma-L-glutamylhistamine [Compound 1]", "values": [{"measurement": "action in comparison with the gamma-L-glutamylhistamine ligand", "setting": "[1]; 0.01 wt % cream vs cream containing gamma-L-glutamylhistamine 0.01%", "result": "significant improvement"}, {"measurement": "effectiveness in comparison with the reference drugs methylprednisolone aceponate, zinc pyrithione and pimecrolimus", "setting": "[1]; 0.01 wt % cream vs reference ointment/creams", "result": "superior performance"}, {"measurement": "influx of inflammatory cells (monocytes, dendritic cells, eosinophils and neutrophils) into the epidermis and dermis of the skin", "setting": "[1]; 0.01 wt % cream, topical to right ear, 1 and 13 hours after last DNCB application, histology on day 18", "result": "to the level of intact animals"}, {"measurement": "IC50", "setting": "[2]", "result": 26, "unit": "µM"}, {"measurement": "solubility in solvents used to record NMR spectra", "setting": "[3]; product of Example 2", "result": "insoluble"}, {"measurement": "dissociation in aqueous suspensions", "setting": "[3]; product of Example 2, D2O NMR spectrum", "result": "insignificant dissociation"}]}]}
